Results from ChEMBL document CHEMBL1201862, “PubChem BioAssay data set” (2004).
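96-well plates; 48 h exposure; 5 concentrations. Endpoints by linear interpolation between flanking doses. Not reached: highest tested concentration assigned. The concentration for 50% growth inhibition is given as GI50.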 Activity calls are given as the source filed them. Cut-off read from the data, not from the text of the source: active = GI50 up to about 1.1 µM and inactive = higher. Where a SMILES comes first, the peptide text is derived from it. The star is where a group is joined. Cbz = O=C(OCc1ccccc1)*; OBn = c1ccc(CO*)cc1

Tests used:
Assay in all cases: growth of human tumour cells (NCI), 48 h
[1] = system: Malme-3M
[2] = system: BT-549
[3] = system: HT-29
[4] = system: SK-MEL-2
[5] = system: MCF7
[6] = system: Hs-578T
[7] = system: SNB-19
[8] = system: 786-0
[9] = system: M14
[10] = system: OVCAR-5
[11] = system: NCI-H460
[12] = system: NCI-H23
[13] = system: PC-3
[14] = system: SNB-75
[15] = system: RPMI-8226
[16] = system: CCRF-CEM
[17] = system: MDA-N
[18] = system: SR
[19] = system: K562
[20] = system: KM12
[21] = system: SF-268
[22] = system: HOP-92
[23] = system: LOX IMVI
[24] = system: MDA-MB-231
[25] = system: DU-145
[26] = system: MOLT-4
[27] = system: OVCAR-8
[28] = system: SF-295
[29] = system: UO-31
[30] = system: HCC 2998
[31] = system: COLO 205
[32] = system: ACHN
[33] = system: SW-620
[34] = system: U-251
[35] = system: SK-MEL-5
[36] = system: NCI/ADR-RES
[37] = system: TK-10
[38] = system: NCI-H522
[39] = system: CAKI-1
[40] = system: OVCAR-3
[41] = system: UACC-62
[42] = system: RXF 393
[43] = system: HCT-15
[44] = system: HCT-116
[45] = system: SK-MEL-28
[46] = system: EKVX
[47] = system: MDA-MB-435
[48] = system: OVCAR-4
[49] = system: IGROV-1
[50] = system: A549
[51] = system: UACC-257
[52] = system: SF-539
[53] = system: SN12C
[54] = system: SK-OV-3
[55] = system: A498
[56] = system: HOP-62
[57] = system: T47D
[58] = system: NCI-H226
[59] = system: HL-60

Compound: FC(F)(F)c1ccc(C2=N/S(c3ccccc3)=N\C(c3ccc(C(F)(F)F)cc3)=N/S(c3ccccc3)=N\2)cc1 (stereo not given)
- GI50 [1]: > 100 µM (inactive)
- GI50 [2]: > 100 µM (inactive)
- GI50 [3]: > 100 µM (inactive)
- GI50 [4]: > 100 µM (inactive)
- GI50 [5]: > 100 µM (inactive)
- GI50 [6]: > 100 µM (inactive)
- GI50 [7]: > 100 µM (inactive)
- GI50 [8]: 80 µM (inactive)
- GI50 [9]: > 100 µM (inactive)
- GI50 [10]: > 100 µM (inactive)
- GI50 [11]: > 100 µM (inactive)
- GI50 [12]: > 100 µM (inactive)
- GI50 [13]: > 100 µM (inactive)
- GI50 [14]: > 100 µM (inactive)
- GI50 [15]: > 100 µM (inactive)
- GI50 [16]: > 100 µM (inactive)
- GI50 [17]: > 100 µM (inactive)
- GI50 [18]: > 100 µM (inactive)
- GI50 [19]: > 100 µM (inactive)
- GI50 [20]: > 100 µM (inactive)
- GI50 [21]: > 100 µM (inactive)
- GI50 [22]: > 100 µM (inactive)
- GI50 [23]: > 100 µM (inactive)
- GI50 [24]: > 100 µM (inactive)
- GI50 [25]: > 100 µM (inactive)
- GI50 [26]: > 100 µM (inactive)
- GI50 [27]: > 100 µM (inactive)
- GI50 [28]: > 100 µM (inactive)
- GI50 [29]: > 100 µM (inactive)
- GI50 [30]: > 100 µM (inactive)
- GI50 [31]: > 100 µM (inactive)
- GI50 [32]: > 100 µM (inactive)
- GI50 [33]: > 100 µM (inactive)
- GI50 [34]: > 100 µM (inactive)
- GI50 [35]: > 100 µM (inactive)
- GI50 [36]: > 100 µM (inactive)
- GI50 [37]: > 100 µM (inactive)
- GI50 [38]: > 100 µM (inactive)
- GI50 [39]: > 100 µM (inactive)
- GI50 [40]: > 100 µM (inactive)
- GI50 [41]: > 100 µM (inactive)
- GI50 [42]: > 100 µM (inactive)
- GI50 [43]: > 100 µM
- GI50 [44]: > 100 µM (inactive)
- GI50 [45]: > 100 µM (inactive)
- GI50 [46]: > 100 µM (inactive)
- GI50 [47]: > 100 µM (inactive)
- GI50 [48]: > 100 µM (inactive)
- GI50 [49]: > 100 µM (inactive)
- GI50 [50]: > 100 µM (inactive)
- GI50 [51]: > 100 µM (inactive)
- GI50 [52]: > 100 µM (inactive)
- GI50 [53]: > 100 µM (inactive)
- GI50 [54]: > 100 µM (inactive)

Compound: COC(=O)C(Cc1ccc(O)cc1)NC(=O)C(CC(=O)OCc1ccccc1)NC(=O)OCc1ccccc1 (stereo not given) (Cbz-Asp(OBn)-Tyr-OMe; configuration not given here)
- GI50 [1]: 41.1 µM (inactive)
- GI50 [2]: 22.6 µM (inactive)
- GI50 [3]: 17.1 µM (inactive)
- GI50 [4]: 19.2 µM (inactive)
- GI50 [5]: > 10 µM (inactive)
- GI50 [6]: 24.9 µM (inactive)
- GI50 [7]: 18.3 µM (inactive)
- GI50 [8]: 18.2 µM (inactive)
- GI50 [9]: 22.2 µM (inactive)
- GI50 [10]: 22.7 µM (inactive)
- GI50 [11]: 12.4 µM (inactive)
- GI50 [12]: 23.6 µM (inactive)
- GI50 [13]: 17.7 µM (inactive)
- GI50 [14]: 17.9 µM (inactive)
- GI50 [15]: 24.9 µM (inactive)
- GI50 [55]: 20.6 µM (inactive)
- GI50 [16]: 53.2 µM (inactive)
- GI50 [17]: 19.4 µM (inactive)
- GI50 [18]: 22.8 µM (inactive)
- GI50 [19]: 42.5 µM (inactive)
- GI50 [20]: 22.6 µM (inactive)
- GI50 [22]: 51.1 µM (inactive)
- GI50 [24]: 18.7 µM (inactive)
- GI50 [26]: 24.7 µM (inactive)
- GI50 [27]: 20.5 µM (inactive)
- GI50 [29]: 22.9 µM (inactive)
- GI50 [30]: 17.6 µM (inactive)
- GI50 [31]: 19.1 µM (inactive)
- GI50 [32]: 20.1 µM (inactive)
- GI50 [33]: 22.4 µM (inactive)
- GI50 [34]: 20.3 µM (inactive)
- GI50 [35]: 18.2 µM (inactive)
- GI50 [37]: 18.2 µM (inactive)
- GI50 [56]: 19.7 µM (inactive)
- GI50 [57]: 19.5 µM (inactive)
- GI50 [42]: 14 µM (inactive)
- GI50 [43]: 18.3 µM
- GI50 [58]: 21.4 µM (inactive)
- GI50 [44]: 19.3 µM (inactive)
- GI50 [45]: 17.1 µM (inactive)
- GI50 [46]: 23.8 µM (inactive)
- GI50 [49]: 17.3 µM (inactive)
- GI50 [50]: 20.7 µM (inactive)
- GI50 [51]: 21.2 µM (inactive)
- GI50 [53]: 21 µM (inactive)
- GI50 [59]: 25.6 µM (inactive)
